Experiments:
[1] = target: Cholecystokinin receptor (Homo sapiens) (UniProt P32239+P32238); assay: Concentration required to inhibit CCK-A receptor/ Concentration required to inhibit CCK-B receptor; format: protein assay
[2] = target: T1, Cholecystokinin receptor type A (Rattus norvegicus, UniProt P30551); assay: Inhibition of [125I]CCK-8 binding to Cholecystokinin type A receptor in rat pancreas
T1 sequence (P30551 whole entry): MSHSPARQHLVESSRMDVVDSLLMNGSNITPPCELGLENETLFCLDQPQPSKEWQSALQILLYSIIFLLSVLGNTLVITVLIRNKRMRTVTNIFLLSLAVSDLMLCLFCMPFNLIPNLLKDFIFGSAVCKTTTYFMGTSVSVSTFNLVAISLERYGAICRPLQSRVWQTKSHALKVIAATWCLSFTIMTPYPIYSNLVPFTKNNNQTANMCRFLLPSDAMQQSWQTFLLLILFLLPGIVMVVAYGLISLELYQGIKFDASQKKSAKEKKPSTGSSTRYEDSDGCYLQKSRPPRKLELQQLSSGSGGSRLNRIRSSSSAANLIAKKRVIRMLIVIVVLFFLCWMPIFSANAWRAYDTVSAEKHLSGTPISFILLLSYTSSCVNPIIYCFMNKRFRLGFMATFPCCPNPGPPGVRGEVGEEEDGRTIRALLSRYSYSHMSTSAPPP

[3] = species: Oryctolagus cuniculus
[4] = target: Gastrin/cholecystokinin type B receptor (Cavia porcellus); assay: Inhibition of binding of [3H]N-Me-N-Leu-CCK-8 to cholecystokinin type B receptor in guinea pig brain cortex

Cholecystokinin receptor (Homo sapiens), sequence (P32238 whole entry, looked up): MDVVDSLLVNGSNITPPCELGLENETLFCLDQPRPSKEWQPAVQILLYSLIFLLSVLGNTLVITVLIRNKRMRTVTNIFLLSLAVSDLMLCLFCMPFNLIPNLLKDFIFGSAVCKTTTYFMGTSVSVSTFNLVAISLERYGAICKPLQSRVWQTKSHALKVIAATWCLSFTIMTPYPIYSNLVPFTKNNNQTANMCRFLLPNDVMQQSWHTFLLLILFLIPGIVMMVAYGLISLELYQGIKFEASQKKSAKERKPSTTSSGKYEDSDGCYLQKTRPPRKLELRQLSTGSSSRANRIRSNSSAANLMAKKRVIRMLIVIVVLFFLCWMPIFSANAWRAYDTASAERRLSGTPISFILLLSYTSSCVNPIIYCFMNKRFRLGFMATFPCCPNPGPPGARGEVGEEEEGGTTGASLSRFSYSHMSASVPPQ
Cholecystokinin receptor (Homo sapiens), sequence (P32239 whole entry, looked up): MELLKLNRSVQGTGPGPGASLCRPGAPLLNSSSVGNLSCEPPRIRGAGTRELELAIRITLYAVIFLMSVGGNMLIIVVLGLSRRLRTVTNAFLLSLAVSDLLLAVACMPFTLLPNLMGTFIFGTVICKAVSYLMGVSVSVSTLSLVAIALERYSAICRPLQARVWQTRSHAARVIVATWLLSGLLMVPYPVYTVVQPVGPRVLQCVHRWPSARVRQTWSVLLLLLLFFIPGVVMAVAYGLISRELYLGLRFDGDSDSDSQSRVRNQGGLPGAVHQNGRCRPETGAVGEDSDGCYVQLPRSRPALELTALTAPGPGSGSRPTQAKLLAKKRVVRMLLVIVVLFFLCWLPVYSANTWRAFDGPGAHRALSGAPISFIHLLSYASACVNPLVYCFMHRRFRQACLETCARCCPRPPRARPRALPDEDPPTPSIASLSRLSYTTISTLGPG

Ratio [1]	IC50 [2]	IC50 [3]	further results	SMILES
369	7.38 µM			O=C(O)CC[C@H](NC(=O)CCC(NC(=O)c1cc(Cl)cc(Cl)c1)C(=O)N1CCC2(CCCC2)CC1)C(=O)Nc1cccc2ccccc12 (stereo partly drawn)
		Not Active		O=C(O)CC[C@@H](NC(=O)CCC(NC(=O)c1cc(Cl)cc(Cl)c1)C(=O)N1CCC2(CCCC2)CC1)C(=O)NC1[C@H]2C[C@@H]3C[C@@H](C[C@H]1C3)C2 (stereo partly drawn)
		Not Active		O=C(O)CC[C@@H](NC(=O)CCC(NC(=O)c1cc(Cl)cc(Cl)c1)C(=O)N1CCC2(CCCC2)CC1)C(=O)NCCC12C[C@H]3C[C@@H](C1)C[C@@H](C2)C3 (stereo partly drawn)
		Not Active		O=C(CCC(NC(=O)c1cc(Cl)cc(Cl)c1)C(=O)N1CCC2(CCCC2)CC1)N[C@@H](Cc1ccccc1)C(=O)O (stereo partly drawn)
	3.4 µM			CN(C(=O)CCC(NC(=O)c1cc(Cl)cc(Cl)c1)C(=O)N1CCC2(CCCC2)CC1)[C@H](Cc1c[nH]c2ccccc12)C(=O)O (stereo partly drawn)
9.6			IC50 [4]: 1.4 µM	O=C(O)CC[C@@H](NC(=O)c1cc(Cl)cc(Cl)c1)C(=O)N1CCC2(CCCC2)CC1 [SPIROGLUMIDE]
